For assay [1], the target named is T1, biotinylated wild-type menin and MLL-AF9 fusion protein (menin/MLL binding) (Homo sapiens, UniProt O00255).
T1 construct: made in house; host or cells: menin: E. coli; MLL-AF9-FLAG: HEK293 cells, used as cleared lysate
T1 sequence (O00255 1-610): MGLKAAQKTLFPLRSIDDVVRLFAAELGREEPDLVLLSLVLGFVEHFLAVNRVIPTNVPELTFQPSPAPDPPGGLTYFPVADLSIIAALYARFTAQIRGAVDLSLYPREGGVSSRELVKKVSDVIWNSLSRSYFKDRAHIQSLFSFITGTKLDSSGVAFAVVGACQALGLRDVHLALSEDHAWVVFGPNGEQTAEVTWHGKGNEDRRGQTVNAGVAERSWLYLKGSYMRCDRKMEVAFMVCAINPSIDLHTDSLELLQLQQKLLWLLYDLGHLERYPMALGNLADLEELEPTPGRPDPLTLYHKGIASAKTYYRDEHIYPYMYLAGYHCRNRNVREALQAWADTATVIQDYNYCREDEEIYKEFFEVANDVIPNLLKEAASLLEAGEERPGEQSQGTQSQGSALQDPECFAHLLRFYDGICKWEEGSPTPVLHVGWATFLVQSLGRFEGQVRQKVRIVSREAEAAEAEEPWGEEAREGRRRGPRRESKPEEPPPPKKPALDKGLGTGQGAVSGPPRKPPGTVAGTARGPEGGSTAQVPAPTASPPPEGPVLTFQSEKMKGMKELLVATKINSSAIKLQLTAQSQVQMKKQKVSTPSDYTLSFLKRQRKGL
The assay can be described thus: Assay 1: menin/MLL binding AlphaLISA assay, wild-type menin. The following applies: Table 30; column head does not say wild-type or mutated menin. The gist of the method:
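Compound was preincubated 30 min at room temperature with biotinylated menin (5 nM) and MLL-AF9-FLAG lysate from HEK293 cells, pH 7.4 buffer with 5% DMSO and DTT. Bead-based Alpha signal after 60 min with streptavidin donor and anti-FLAG acceptor beads; four-parameter logistic fit gave IC50.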
For orientation: In Alpha technology, singlet oxygen from a donor bead excites a nearby acceptor bead.

For assay [2], the system named is human acute monocytic leukemia cell line MV-4-11. The assay can be described thus: Assay 2: cell proliferation assay (ATP quantitation, CellTiter-Glo), MV-4-11. Format: cell-based. The following applies: Homo sapiens, MV4-11, 72 h, MV-4-11 cells. The essentials:
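Read-out is CellTiter-Glo luminescence quantifying ATP. Compound exposure lasted 72 h at 37° C., 5% CO2, with 1.67×10^4 MV-4-11 cells per well in 10% FBS medium, alongside HL-60 toxicity-control cells.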

In general, IC50 refers to the point on the concentration scale where inhibition reaches its midpoint. Lower therefore signals greater potency. By EC50 is commonly meant the midpoint of the concentration-response curve. Low readings indicate higher potency in that assay, high ones lower potency in that assay.

In the case of `CC(C)N(C)C(=O)c1cc(F)ccc1Oc1cncnc1N1CC2(CCN(C[C@H]3CC[C@H](NC(=O)OC(C)(C)C)CC3)CC2)C1` [Example 94, tert-butyl ((1r,4r)-4-((2-(5-(4-fluoro-2-(isopropyl(methyl)carbamoyl)phenoxy)pyrimidin-4-yl)-2,7-diazaspiro[3.5]nonan-7-yl)methyl)cyclohexyl) carbamate], the IC50 in assay [1] was under 0.1 µM. In assay [2], this molecule displayed an EC50 of 0.1 to 1 µM.

In assay [1], `COC(=O)N[C@H]1CC[C@H](CN2CCC3(CC2)CN(c2ncncc2Oc2ccc(F)cc2C(=O)N(C)C(C)C)C3)CC1` [Example 95, methyl ((1r,4r)-4-((2-(5-(4-fluoro-2-(isopropyl(methyl)carbamoyl)phenoxy)pyrimidin-4-yl)-2,7-diazaspiro[3.5]nonan-7-yl)methyl)cyclohexyl) carbamate] registered an IC50 of under 0.1 µM. In assay [2], this molecule displayed a half-maximal effective concentration (EC50) of 0.1 to 1 µM.

In assay [1], `CC(C)c1ncncc1-c1cc(F)ccc1Oc1cncnc1N1CC2(CCC(NC(C)(C)C)C2)C1` (stereo not drawn) [Example 96, N-(tert-butyl)-2-(5-(4-fluoro-2-(4-isopropylpyrimidin-5-yl)phenoxy)pyrimidin-4-yl)-2-azaspiro[3.4]octan-6-amine] displayed a concentration for half-maximal inhibition (IC50) of under 0.1 µM. Further, the EC50 in assay [2] lay in the range of 0.1 to 1 µM.

Take `CC(C)N(C(=O)c1cc(F)ccc1Oc1cncnc1N1CC2(CCN(CC3CCC(O)CC3)CC2)C1)C(C)C` (stereo not drawn) [Example 98, 5-fluoro-2-((4-(7-((4-hydroxycyclohexyl)methyl)-2,7-diazaspiro[3.5]nonan-2-yl)pyrimidin-5-yl)oxy)-N,N-diisopropylbenzamide]: the IC50 in assay [1] was under 0.1 µM. For the same molecule, in assay [2], the EC50 lay in the range of 0.1 to 1 µM.

As for `CC(C)N(C(=O)c1cc(F)ccc1Oc1cncnc1N1CC2(CCN(CC3CCC(O)CC3)C2)C1)C(C)C` (stereo not drawn) [Example 99, 5-fluoro-2-((4-(6-((4-hydroxycyclohexyl)methyl)-2,6-diazaspiro[3.4]octan-2-yl)pyrimidin-5-yl)oxy)-N,N-diisopropylbenzamide], the IC50 in assay [1] is under 0.1 µM. Besides, the EC50 in assay [2] lay within 0.1 to 1 µM.

`CC(C)N(C(=O)c1cc(F)ccc1Oc1cncnc1N1CC2(CCN(C[C@H]3CC[C@H](NC(=O)OC(C)(C)C)CC3)CC2)C1)C(C)C` [Example 99A, tert-butyl ((1r,4r)-4-((2-(5-(2-(diisopropylcarbamoyl)-4-fluorophenoxy)pyrimidin-4-yl)-2,7-diazaspiro[3.5]nonan-7-yl)methyl)cyclohexyl)carbamate]: the IC50 in assay [1] is under 0.1 µM. In addition, the EC50 in assay [2] is under 0.1 µM.

For `CC(C)N(C(=O)c1cc(F)ccc1Oc1cncnc1N1CC2(CCN(CC3CCC4(CC3)OCCO4)CC2)C1)C(C)C` [Example 100, 2-((4-(7-((1,4-dioxaspiro[4.5]decan-8-yl)methyl)-2,7-diazaspiro[3.5]nonan-2-yl)pyrimidin-5-yl)oxy)-5-fluoro-N,N-diisopropylbenzamide], the IC50 in assay [1] is under 0.1 µM. In assay [2], this molecule returned an EC50 of 0.1 to 1 µM.

`CC(C)N(C(=O)c1cc(F)ccc1Oc1cncnc1N1CC2(CCN(CC3CCOCC3)CC2)C1)C(C)C` [Example 101, 5-fluoro-N,N-diisopropyl-2-((4-(7-((tetrahydro-2H-pyran-4-yl)methyl)-2,7-diazaspiro[3.5]nonan-2-yl)pyrimidin-5-yl)oxy)benzamide] gave a half-maximal inhibitory concentration (IC50) in assay [1] of under 0.1 µM. Further, the concentration for a half-maximal effect (EC50) in assay [2] was 0.1 to 1 µM.

`CC(C)N(C(=O)c1cc(F)ccc1Oc1cncnc1N1CC2(CCN(CC(C)(C)C)C2)C1)C(C)C` [Example 102, 5-fluoro-N,N-diisopropyl-2-((4-(6-neopentyl-2,6-diazaspiro[3.4]octan-2-yl)pyrimidin-5-yl)oxy)benzamide] gave an IC50 in assay [1] of under 0.1 µM. Moreover, in assay [2], the EC50 is under 0.1 µM.

In turn, `CC(C)N(C(=O)c1cc(F)ccc1Oc1cncnc1N1CC2(CCN(CC3CC3)C2)C1)C(C)C` [Example 103, 2-((4-(6-(cyclopropylmethyl)-2,6-diazaspiro [3.4]octan-2-yl)pyrimidin-5-yl)oxy)-5-fluoro-N,N-diisopropylbenzamide] registered a half-maximal inhibitory concentration (IC50) in assay [1] of under 0.1 µM. Also, the concentration giving a half-maximal response (EC50) in assay [2] is 0.1 to 1 µM.

On to `CC(C)N(C(=O)c1cc(F)ccc1Oc1cncnc1N1CC2(CCN(C3CCc4cc(C#N)ccc4C3)C2)C1)C(C)C` (stereo not drawn) [Example 104, 2-((4-(6-(6-cyano-1,2,3,4-tetrahydro-naphthalen-2-yl)-2,6-diazaspiro[3.4]octan-2-yl)pyrimidin-5-yl)oxy)-5-fluoro-N,N-diisopropyl-benzamide], for which, in assay [1], the 50% inhibitory concentration (IC50) is under 0.1 µM. Also, the concentration for a half-maximal effect (EC50) in assay [2] is under 0.1 µM.

`CC(C)N(C(=O)c1cc(F)ccc1Oc1cncnc1N1CC2(CN(CC[C@H]3CC[C@H](NC(=O)C(C)(C)C)CC3)C2)C1)C(C)C` [Example 105, 5-fluoro-N,N-diisopropyl-2-((4-(6-(2-((1r,4r)-4-pivalamidocyclo-hexyl)ethyl)-2,6-diazaspiro[3.3]heptan-2-yl)pyrimidin-5-yl)oxy)benzamide]: the half-inhibitory concentration (IC50) in assay [1] was under 0.1 µM. The concentration for a half-maximal effect (EC50) in assay [2] is under 0.1 µM.

`CCN(C(=O)C(C)C)c1cc(F)ccc1Oc1cncnc1N1CC2(CN(CC3CCCCC3)C2)C1` [Example 106, N-(2-((4-(6-(cyclohexylmethyl)-2,6-diazaspiro[3.3]heptan-2-yl)pyrimidin-5-yl)oxy)-5-fluoro-phenyl)-N-ethylisobutyramide]: in assay [1], the IC50 is under 0.1 µM. The same molecule displayed a concentration giving a half-maximal response (EC50) in assay [2] of under 0.1 µM.

`CCN(C(=O)c1cc(F)ccc1Oc1cncnc1N1CCC2(CCN(Cc3ccc4c(c3)[nH]c(=O)n4C)C2)C1)C(C)C` (stereo not drawn) [Example 107, N-ethyl-5-fluoro-N-isopropyl-2-((4-(7-((1-methyl-2-oxo-2,3-dihydro-1H-benzo[d]imidazol-5-yl)methyl)-2,7-diazaspiro[4.4]nonan-2-yl)pyrimidin-5-yl)oxy)benzamide] came in with a half-maximal inhibitory concentration (IC50) in assay [1] of under 0.1 µM. The EC50 in assay [2] was under 0.1 µM.

Turning to `Fc1ccc(Oc2cncnc2N2CCC3(CCN(CC4CCOCC4)C3)C2)c(OC2CCCC2)c1` (stereo not drawn) [Example 108, 2-(5-(2-(cyclopentyloxy)-4-fluorophenoxy)pyrimidin-4-yl)-7-((tetrahydro-2H-pyran-4-yl)methyl)-2,7-diazaspiro[4.4]nonane], the concentration for half-maximal inhibition (IC50) in assay [1] is under 0.1 µM. Moreover, the EC50 in assay [2] was at least 1 µM.

`CCN(C(=O)C(C)C)c1cc(F)ccc1Oc1cncnc1N1CC2(CCN(CC3CCOCC3)CC2)C1` [Example 110, N-ethyl-N-(5-fluoro-2-((4-(7-((tetrahydro-2H-pyran-4-yl)methyl)-2,7-diazaspiro[3.5]nonan-2-yl)pyrimidin-5-yl)oxy)phenyl)iso-butyramide] showed a 50% inhibitory concentration (IC50) in assay [1] of under 0.1 µM. This molecule showed an EC50 in assay [2] of 0.1 to 1 µM.

With `CC(C)N(C(=O)c1cc(F)ccc1Oc1cncnc1N1CC2(CCN(CC3CCOCC3)C2)C1)C(C)C` [Example 111, 5-fluoro-N,N-diisopropyl-2-((4-(6-((tetrahydro-2H-pyran-4-yl)methyl)-2,6-diazaspiro[3.4]octan-2-yl)pyrimidin-5-yl)oxy)benzamide], the IC50 in assay [1] was under 0.1 µM. The EC50 in assay [2] was under 0.1 µM.

Consider `CC(C)N(C(=O)c1cc(F)ccc1Oc1cncnc1N1CC2(CN(CC3CCOCC3)C2)C1)C(C)C` [Example 112, 5-fluoro-N,N-diisopropyl-2-((4-(6-((tetrahydro-2H-pyran-4-yl)methyl)-2,6-diazaspiro[3.3]heptan-2-yl)pyrimidin-5-yl)oxy)benzamide], for which the half-maximal inhibitory concentration (IC50) in assay [1] is under 0.1 µM. The molecule also gave an EC50 in assay [2] of under 0.1 µM.

Consider `CC(C)N(C(=O)c1cc(F)ccc1Oc1cncnc1N1CC2(CCN(C(=O)Cc3ccc(C#N)cc3)C2)C1)C(C)C` [Example 113, 2-((4-(6-(2-(4-cyanophenyl)acetyl)-2,6-diazaspiro[3.4]octan-2-yl)pyrimidin-5-yl)oxy)-5-fluoro-N,N-diisopropylbenzamide], for which the IC50 in assay [1] is under 0.1 µM. The molecule further had an EC50 in assay [2] of under 0.1 µM.

On to `CC(C)N(C(=O)c1cc(F)ccc1Oc1cncnc1N1CC2(CCN(C3CCc4cc(F)ccc4C3)C2)C1)C(C)C` (stereo not drawn) [Example 114, 5-fluoro-2-((4-(6-(6-fluoro-1,2,3,4-tetrahydronaphthalen-2-yl)-2,6-diazaspiro[3.4]octan-2-yl)pyrimidin-5-yl)oxy)-N,N-diisopropylbenzamide], for which the 50% inhibitory concentration (IC50) in assay [1] is under 0.1 µM. The same molecule had a 50% effective concentration (EC50) in assay [2] of 0.1 to 1 µM.

With `CC(C)N(C(=O)c1cc(F)ccc1Oc1cncnc1N1CC2(CN(CC[C@H]3CC[C@H](NC(=O)OC(C)(C)C)CC3)C2)C1)C(C)C` [Example 115, tert-butyl ((1r,4r)-4-(2-(6-(5-(2-(diisopropylcarbamoyl)-4-fluorophenoxy)pyrimidin-4-yl)-2,6-diazaspiro[3.3]heptan-2-yl)ethyl)cyclohexyl) carbamate], in assay [1], the IC50 was under 0.1 µM. For the same molecule, in assay [2], the 50% effective concentration (EC50) is under 0.1 µM.

For the origin of these results see patent US12312359B2 (Vitae Pharmaceuticals, LLC, priority 2016, dated 2025).
